Assay results reported in the supplement of paper PMC10307832.

Legend:
Assay in all cases: relative viability (nuclei count vs DMSO), 5 days (fraction); higher = more cells survive
[1] = compound: CN1CCN(CC1)C2=CC(=C(C=C2)NC3=NC(=C(S3)C(=O)C4=C(C=CC=C4Cl)Cl)N)OC [XMD14-99]
Outline: (§1)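 Lung cancer cell lines in 1536-well plates were exposed by pinning to five library-drug doses (not always all listed) √10 apart, following an overnight hold at 37 °C. MetaXpress counted Hoechst-stained nuclei from 4× images taken after 5 days without medium change. Viability is the median ratio of treated-well to vehicle-well nuclei across plates. Plates required control CV below 25% and at least one doubling.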

[2] = compound: N[C@@H]1CCCN(c2c(/C=C3\SC(=O)NC3=O)cccc2-c2ccccc2)C1 [AZD1208]
Outline: as §1

[3] = compound: N[C@@H]1CCCN(c2c(/C=C3\SC(=O)NC3=O)cccc2-c2ccccc2)C1 [AZD1208] + Nc1nc2[nH]cc(CCc3ccc(C(=O)N[C@@H](CCC(=O)O)C(=O)O)cc3)c2c(=O)[nH]1 [Pemetrexed] (partner 0.2 µM)
Outline: (§2)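 The day after seeding in 1536-well plates, lung cancer cell lines were treated by pin tool with a single drug, or with a fixed anchor-drug dose together with five library-drug doses (not always all listed) in √10 steps. After 5 days, a combined fix-and-stain solution (final 0.05% Triton X-100, 1% formaldehyde, 1 ug/ml Hoechst) was added. Nuclei counted on 4× images gave relative viability as treated counts over vehicle counts, reported as the median of duplicate plates.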

[4] = compound: CN1CCN(CC1)C2=CC(=C(C=C2)NC3=NC(=C(S3)C(=O)C4=C(C=CC=C4Cl)Cl)N)OC [XMD14-99] + Cc1nc(NC(=O)N2CCC[C@H]2C(N)=O)sc1-c1ccnc(C(C)(C)C(F)(F)F)c1 [Alpelisib] (partner 2 µM)
Outline: as §2

NCI-H2405
relative viability ([1]; 0.08 µM): 0.962
relative viability ([1]; 0.8 µM): 1.02
relative viability ([1]; 2.53 µM): 0.964
relative viability ([1]; 8 µM): 0.726
relative viability ([2]; 0.08 µM): 1.01
relative viability ([2]; 0.253 µM): 0.938
relative viability ([2]; 0.8 µM): 0.942
relative viability ([2]; 2.53 µM): 0.964
relative viability ([2]; 8 µM): 0.947
relative viability ([3]; first compound 0.08 µM): 1.01
relative viability ([3]; first compound 0.253 µM): 1
relative viability ([3]; first compound 0.8 µM): 1.02
relative viability ([3]; first compound 2.53 µM): 1.02
relative viability ([3]; first compound 8 µM): 0.95
relative viability ([4]; first compound 0.08 µM): 0.792
relative viability ([4]; first compound 0.8 µM): 0.895
relative viability ([4]; first compound 2.53 µM): 0.809
relative viability ([4]; first compound 8 µM): 0.416

NCI-H3122
relative viability ([1]; 0.08 µM): 1
relative viability ([1]; 0.8 µM): 0.995
relative viability ([1]; 2.53 µM): 0.892
relative viability ([1]; 8 µM): 0.694
relative viability ([2]; 0.08 µM): 0.994
relative viability ([2]; 0.253 µM): 0.996
relative viability ([2]; 0.8 µM): 0.932
relative viability ([2]; 2.53 µM): 1.04
relative viability ([2]; 8 µM): 0.981
relative viability ([3]; first compound 0.08 µM): 0.201
relative viability ([3]; first compound 0.253 µM): 0.187
relative viability ([3]; first compound 0.8 µM): 0.195
relative viability ([3]; first compound 2.53 µM): 0.207
relative viability ([3]; first compound 8 µM): 0.187
relative viability ([4]; first compound 0.08 µM): 0.76
relative viability ([4]; first compound 0.8 µM): 0.741
relative viability ([4]; first compound 2.53 µM): 0.542
relative viability ([4]; first compound 8 µM): 0.319

PC-3 [JPC-3]
relative viability ([1]; 0.08 µM): 1.08
relative viability ([1]; 0.8 µM): 1.03
relative viability ([1]; 2.53 µM): 0.95
relative viability ([1]; 8 µM): 0.818
relative viability ([2]; 0.08 µM): 1.05
relative viability ([2]; 0.253 µM): 1.06
relative viability ([2]; 0.8 µM): 1.08
relative viability ([2]; 2.53 µM): 1.17
relative viability ([2]; 8 µM): 1.08
relative viability ([3]; first compound 0.08 µM): 1.22
relative viability ([3]; first compound 0.253 µM): 1.04
relative viability ([3]; first compound 0.8 µM): 1.09
relative viability ([3]; first compound 2.53 µM): 1.18
relative viability ([3]; first compound 8 µM): 1.2
relative viability ([4]; first compound 0.08 µM): 1.06
relative viability ([4]; first compound 0.8 µM): 0.947
relative viability ([4]; first compound 2.53 µM): 0.916
relative viability ([4]; first compound 8 µM): 0.893

PC-14
relative viability ([1]; 0.08 µM): 1.02
relative viability ([1]; 0.8 µM): 1.01
relative viability ([1]; 2.53 µM): 0.907
relative viability ([1]; 8 µM): 0.646
relative viability ([2]; 0.08 µM): 1.07
relative viability ([2]; 0.253 µM): 1.11
relative viability ([2]; 0.8 µM): 0.923
relative viability ([2]; 2.53 µM): 0.996
relative viability ([2]; 8 µM): 0.953
relative viability ([3]; first compound 0.08 µM): 0.125
relative viability ([3]; first compound 0.253 µM): 0.132
relative viability ([3]; first compound 0.8 µM): 0.14
relative viability ([3]; first compound 2.53 µM): 0.153
relative viability ([3]; first compound 8 µM): 0.165
relative viability ([4]; first compound 0.08 µM): 0.813
relative viability ([4]; first compound 0.8 µM): 0.921
relative viability ([4]; first compound 2.53 µM): 0.901
relative viability ([4]; first compound 8 µM): 0.73

RERF-LC-KJ
relative viability ([1]; 0.08 µM): 0.991
relative viability ([1]; 0.8 µM): 0.938
relative viability ([1]; 2.53 µM): 0.903
relative viability ([1]; 8 µM): 0.834
relative viability ([2]; 0.08 µM): 0.998
relative viability ([2]; 0.253 µM): 1.03
relative viability ([2]; 0.8 µM): 0.878
relative viability ([2]; 2.53 µM): 0.935
relative viability ([2]; 8 µM): 0.746
relative viability ([3]; first compound 0.08 µM): 0.515
relative viability ([3]; first compound 0.253 µM): 0.441
relative viability ([3]; first compound 0.8 µM): 0.505
relative viability ([3]; first compound 2.53 µM): 0.476
relative viability ([3]; first compound 8 µM): 0.491
relative viability ([4]; first compound 0.08 µM): 0.718
relative viability ([4]; first compound 0.8 µM): 0.917
relative viability ([4]; first compound 2.53 µM): 0.75
relative viability ([4]; first compound 8 µM): 0.588

SK-LU-1
relative viability ([1]; 0.08 µM): 0.987
relative viability ([1]; 0.8 µM): 1.04
relative viability ([1]; 2.53 µM): 0.948
relative viability ([1]; 8 µM): 0.7
relative viability ([2]; 0.08 µM): 0.988
relative viability ([2]; 0.253 µM): 1.15
relative viability ([2]; 0.8 µM): 0.932
relative viability ([2]; 2.53 µM): 1.05
relative viability ([2]; 8 µM): 0.922
relative viability ([3]; first compound 0.08 µM): 0.956
relative viability ([3]; first compound 0.253 µM): 1.02
relative viability ([3]; first compound 0.8 µM): 0.988
relative viability ([3]; first compound 2.53 µM): 0.944
relative viability ([3]; first compound 8 µM): 0.869
relative viability ([4]; first compound 0.08 µM): 0.893
relative viability ([4]; first compound 0.8 µM): 0.96
relative viability ([4]; first compound 2.53 µM): 0.996
relative viability ([4]; first compound 8 µM): 0.598

SK-MES-1
relative viability ([1]; 0.08 µM): 1.02
relative viability ([1]; 0.8 µM): 0.994
relative viability ([1]; 2.53 µM): 0.976
relative viability ([1]; 8 µM): 0.664
relative viability ([2]; 0.08 µM): 0.979
relative viability ([2]; 0.253 µM): 1.01
relative viability ([2]; 0.8 µM): 0.964
relative viability ([2]; 2.53 µM): 0.943
relative viability ([2]; 8 µM): 0.866
relative viability ([3]; first compound 0.08 µM): 0.993
relative viability ([3]; first compound 0.253 µM): 0.999
relative viability ([3]; first compound 0.8 µM): 0.956
relative viability ([3]; first compound 2.53 µM): 0.842
relative viability ([3]; first compound 8 µM): 0.864
relative viability ([4]; first compound 0.08 µM): 0.924
relative viability ([4]; first compound 0.8 µM): 0.909
relative viability ([4]; first compound 2.53 µM): 0.851
relative viability ([4]; first compound 8 µM): 0.591

SW 1573
relative viability ([1]; 0.08 µM): 0.964
relative viability ([1]; 0.8 µM): 0.939
relative viability ([1]; 2.53 µM): 1
relative viability ([1]; 8 µM): 0.834
relative viability ([2]; 0.08 µM): 0.822
relative viability ([2]; 0.253 µM): 0.899
relative viability ([2]; 0.8 µM): 0.799
relative viability ([2]; 2.53 µM): 0.807
relative viability ([2]; 8 µM): 0.696
relative viability ([3]; first compound 0.08 µM): 0.782
relative viability ([3]; first compound 0.253 µM): 0.748
relative viability ([3]; first compound 0.8 µM): 0.717
relative viability ([3]; first compound 2.53 µM): 0.646
relative viability ([3]; first compound 8 µM): 0.749
relative viability ([4]; first compound 0.08 µM): 0.8
relative viability ([4]; first compound 0.8 µM): 0.737
relative viability ([4]; first compound 2.53 µM): 0.697
relative viability ([4]; first compound 8 µM): 0.651

UMC-11
relative viability ([1]; 0.08 µM): 0.968
relative viability ([1]; 0.8 µM): 1.02
relative viability ([1]; 2.53 µM): 1
relative viability ([1]; 8 µM): 0.83
relative viability ([2]; 0.08 µM): 0.85
relative viability ([2]; 0.253 µM): 0.851
relative viability ([2]; 0.8 µM): 0.713
relative viability ([2]; 2.53 µM): 0.67
relative viability ([2]; 8 µM): 0.511
relative viability ([3]; first compound 0.08 µM): 0.689
relative viability ([3]; first compound 0.253 µM): 0.718
relative viability ([3]; first compound 0.8 µM): 0.631
relative viability ([3]; first compound 2.53 µM): 0.594
relative viability ([3]; first compound 8 µM): 0.48
relative viability ([4]; first compound 0.08 µM): 0.939
relative viability ([4]; first compound 0.8 µM): 1.02
relative viability ([4]; first compound 2.53 µM): 1.01
relative viability ([4]; first compound 8 µM): 0.735
